Patent publication US10654816B2, “Compounds and compositions for treating conditions associated with NLRP activity” (NOVARTIS INFLAMMASOME RESEARCH, INC., priority 2017, dated 2020)

Each compound was assayed on IL-1β production in PMA-differentiated THP-1 cells (assay: IL-1β production in PMA-differentiated THP-1 cells stimulated with gramicidin (hTHP-1 assay, HTRF readout; Procedures 1-3)). Details: Homo sapiens, THP-1, hTHP-1 assay containing 2% fetal bovine serum; average; class symbols; read-out: hTHP-1 IC50 (Average IC50 of compounds in hTHP-1 assay).
Format: cell-based, human
Description: The Following Protocol is Suitable for Testing the Activity of the Compounds Disclosed Herein. Procedure 1: IL-1B Production in PMA-Differentiated THP-1 Cells Stimulated with Gramicidin.
THP-1 cells were purchased from the American Type Culture Collection and sub-cultured according to instructions from the supplier. Cells were cultured in complete RPMI 1640 (containing 10% heat inactivated FBS, penicillin (100 units/ml) and streptomycin (100 μg/ml)), and maintained in log phase prior to experimental setup. Prior to the experiment, compounds were dissolved in dimethyl sulfoxide (DMSO) to generate a 30 mM stock. The compound stock was first pre-diluted in DMSO to 3, 0.34, 0.042 and 0.0083 mM intermediate concentrations and subsequently spotted using Echo550 liquid handler into an empty 384-well assay plate to achieve desired final concentration (e.g. 100, 33, 11, 3.7, 1.2, 0.41, 0.14, 0.046, 0.015, 0.0051, 0.0017 μM). DMSO was backfilled in the plate to achieve a final DMSO assay concentration of 0.37%. The plate was then sealed and stored at room temperature until required.
THP-1 cells were treated with PMA (Phorbol 12-myristate 13-acetate) (20 ng/ml) for 16-18 hours. On the day of the experiment the media was removed and adherent cells were detached with trypsin for 5 minutes. Cells were then harvested, washed with complete RPMI 1640, spun down, and resuspended in RPMI 1640 (containing 2% heat inactivated FBS, penicillin (100 units/ml) and streptomycin (100 μg/ml). The cells were plated in the 384-well assay plate containing the spotted compounds at a density of 50,000 cells/well (final assay volume 50 μl). Cells were incubated with compounds for 1 hour and then stimulated with gramicidin (5 μM) (Enzo) for 2 hours. Plates were then centrifuged at 340 g for 5 min. Cell free supernatant (40 μL) was collected using a 96-channel PlateMaster (Gilson) and the production of IL-1β was evaluated by HTRF (cisbio). The plates were incubated for 18 h at 4° C. and read using the preset HTRF program (donor emission at 620 nm, acceptor emission at 668 nm) of the SpectraMax i3x spectrophotometer (Molecular Devices, software SoftMax 6). A vehicle only control and a dose titration of CRID3 (100-0.0017 μM) were run concurrently with each experiment.
Procedure 2: IL-1β Production in PMA-Differentiated THP-1 Cells Stimulated with Gramicidin.
THP-1 cells were purchased from the American Type Culture Collection and sub-cultured according to instructions from the supplier. Prior to experiments, cells were cultured in complete RPMI 1640 (containing 10% heat inactivated FBS, penicillin (100 units/ml) and streptomycin (100 μg/ml)), and maintained in log phase prior to experimental setup. Prior to the experiment THP-1 were treated with PMA (Phorbol 12-myristate 13-acetate) (20 ng/ml) for 16-18 hours. Compounds were dissolved in dimethyl sulfoxide (DMSO) to generate a 30 mM stock.
On the day of the experiment the media was removed and adherent cells were detached with trypsin for 5 minutes. Cells were then harvested, washed with complete RPMI 1640, spun down, resuspended in RPMI 1640 (containing 2% heat inactivated FBS, penicillin (100 units/ml) and streptomycin (100 μg/ml). The cells were plated in a 384-well plate at a density of 50,000 cells/well (final assay volume 50 μl). Compounds were first dissolved in assay medium to obtain a 5× top concentration of 500 μM. 10 step dilutions (1:3) were then undertaken in assay medium containing 1.67% DMSO. 5× compound solutions were added to the culture medium to achieve desired final concentration (e.g. 100, 33, 11, 3.7, 1.2, 0.41, 0.14, 0.046, 0.015, 0.0051, 0.0017 μM). Final DMSO concentration was at 0.37%. Cells were incubated with compounds for 1 hour and then stimulated with gramicidin (5 μM) (Enzo) for 2 hours. Plates were then centrifuged at 340 g for 5 min. Cell free supernatant (40 μL) was collected using a 96-channel PlateMaster (Gilson) and the production of IL-1β was evaluated by HTRF (cisbio). […]
`CC(C)c1cc(C#N)cc(C(C)C)c1NC(=O)N=S(N)(=O)c1ccc(S(C)(=O)=O)cc1` (single isomer, unassigned) [Example 196, (S)- or (R)-N′-((4-cyano-2,6-diisopropylphenyl)carbamoyl)-4-(methylsulfonyl)-benzenesulfonimidamide] was tested, and the IC50 was 5 to 30 µM. In the case of `CC(C)c1cc(C#N)cc(C(C)C)c1NC(=O)N=S(N)(=O)c1cc(C(C)(C)O)cc(C(C)(C)O)c1` (single isomer, unassigned) [Example 198, N′-((4-cyano-2,6-diisopropylphenyl)carbamoyl)-3,5-bis-(2-hydroxypropan-2-yl)benzenesulfonimidamide], the IC50 is reported as 5 to 30 µM. For `C#CCCC(=O)N(C)Cc1ccc(S(N)(=O)=NC(=O)Nc2c3c(cc4c2CCC4)CCC3)cc1` (single isomer, unassigned) [Example 312, (S) or (R)-N-(4-(N′-((1,2,3,5,6,7-hexahydro-s-indacen-4-yl)carbamoyl)sulfamid-imidoyl)benzyl)-N-methylpent-4-ynamide], the IC50 was 1 to 5 µM. Work on `CCc1ccc2cn[nH]c2c1NC(=O)N=S(N)(=O)c1cnc(C(C)(C)O)s1` (single isomer, unassigned) [Example 326, (R) or (S)-N′-((6-ethyl-1H-indazol-7-yl)carbamoyl)-2-(2-hydroxypropan-2-yl)thiazole-5-sulfonimidamide] yielded an IC50 of 5 to 30 µM. With `CCc1ccc2cnn(C)c2c1NC(=O)N=S(N)(=O)c1ncc(C(C)(C)O)s1` (single isomer, unassigned) [Example 328, (R) or (S)-N′-((6-ethyl-1-methyl-1H-indazol-7-yl)carbamoyl)-5-(2-hydroxypropan-2-yl)thiazole-2-sulfonimidamide] the IC50 was 1 to 5 µM. Compound `CC(C)(O)c1ncc(S(N)(=O)=NC(=O)Nc2c3c(cc4c2CCC4O)CCC3)s1` (single isomer, unassigned) [Example 337, (R, R) or (R, S)-N′-((l-hydroxy-1,2,3,5,6,7-hexahydro-s-indacen-4-yl)carbamoyl)-2-(2-hydroxypropan-2-yl)thiazole-5-sulfonimidamide] has an IC50 of 1 to 5 µM. `CN(C)S(=O)(=NC(=O)Nc1c2c(cc3c1CCC3)CCC2)c1cc(C(C)(C)O)cs1` (single isomer, unassigned) [Example 357, (R) or (S)-N′-((1,2,3,5,6,7-hexahydro-s-indacen-4-yl)carbamoyl)-4-(2-hydroxypropan-2-yl)-N,N-dimethylthiophene-2-sulfonimidamide] showed an IC50 of 5 to 30 µM.

Same assay, conditions: Homo sapiens, THP-1, hTHP-1 assay containing 2% fetal bovine serum; average; given as bound; read-out: hTHP-1 IC50 (Average IC50 of compounds in hTHP-1 assay)
`CC(C)c1cc(C#N)cc(C(C)C)c1NC(=O)N=S(N)(=O)c1sc(C(C)(C)O)nc1CO` (single isomer, unassigned) [Example 193, (R)- or (S)-N′-((4-cyano-2,6-diisopropylphenyl)carbamoyl)-4-(hydroxymethyl)-2-(2-hydroxypropan-2-yl)thiazole-5-sulfonimidamide] was tested, and the IC50 was > 30 µM. In the case of `CC(C)c1cc(C#N)cc(C(C)C)c1NC(=O)N=S(N)(=O)c1ccc(S(C)(=O)=O)cc1` (single isomer, unassigned) [Example 197, (R)- or (S)-N′-((4-cyano-2,6-diisopropylphenyl)carbamoyl)-4-(methyl-sulfonyl)benzenesulfonimidamide], the IC50 is reported as > 30 µM. With `CC(C)c1cc(C#N)cc(C(C)C)c1NC(=O)N=S(N)(=O)c1cc(C(C)(C)O)cc(C(C)(C)O)c1` (single isomer, unassigned) [Example 199, N′-((4-cyano-2,6-diisopropylphenyl)carbamoyl)-3,5-bis-(2-hydroxypropan-2-yl)benzenesulfonimidamide] the IC50 was > 30 µM. For `CCc1ccc2cnn(C)c2c1NC(=O)N=S(N)(=O)c1ncc(C(C)(C)O)s1` (single isomer, unassigned) [Example 327, (S) or (R)-N′-((6-ethyl-1-methyl-1H-indazol-7-yl)carbamoyl)-5-(2-hydroxypropan-2-yl)thiazole-2-sulfonimidamide], the IC50 was > 30 µM. `CCc1ccc2cn(C)nc2c1NC(=O)N=S(N)(=O)c1ncc(C(C)(C)O)s1` (single isomer, unassigned) [Example 329, (S) or (R)-N′-((6-ethyl-2-methyl-2H-indazol-7-yl)carbamoyl)-5-(2-hydroxypropan-2-yl)thiazole-2-sulfonimidamide] was tested, and the IC50 was > 30 µM. In the case of `CN(C)S(=O)(=NC(=O)Nc1c2c(cc3c1CCC3)CCC2)c1cc(C(C)(C)O)cs1` (single isomer, unassigned) [Example 358, (S) or (R) -N′-((1,2,3,5,6,7-hexahydro-s-indacen-4-yl)carbamoyl)-4-(2-hydroxypropan-2-yl)-N,N-dimethylthiophene-2-sulfonimidamide], the IC50 is reported as > 30 µM.

Same assay, conditions: Homo sapiens, THP-1, hTHP-1 assay containing 2% fetal bovine serum; average; numeric bound printed without unit; read-out: hTHP-1 IC50 (Average IC50 of compounds in hTHP-1 assay)
`CCc1ccc2cn[nH]c2c1NC(=O)N=S(N)(=O)c1cnc(C(C)(C)O)s1` (single isomer, unassigned) [Example 325, (S) or (R)-N′-((6-ethyl-1H-indazol-7-yl)carbamoyl)-2-(2-hydroxypropan-2-yl)thiazole-5-sulfonimidamide] was tested, and the IC50 was > 28.4 µM.

Same assay, conditions: hTHP-1 assay containing 2% fetal bovine serum; average; class symbols; read-out: hTHP-1 IC50 (Average IC50 of compounds in hTHP-1 assay)
`CC(C)(O)c1ncc([S@](N)(=O)=NC(=O)Nc2c3c(cc4c2CC4)CCC3)s1` (single isomer, unassigned) [Example 224] was tested, and the IC50 was 0.008 to 0.04 µM. Compound `CC(C)(O)c1ncc([S@@](N)(=O)=NC(=O)Nc2c3c(cc4c2CC4)CCC3)s1` (single isomer, unassigned) [Example 225] has an IC50 of 1 to 5 µM. In the case of `C#CCCC(=O)N(C)Cc1ccc(S(N)(=O)=NC(=O)Nc2c3c(cc4c2CCC4)CCC3)cc1` (single isomer, unassigned) [Example 313, (R) or (S)-N-(4-(N′-((1,2,3,5,6,7-hexahydro-s-indacen-4-yl)carbamoyl)sulfamid-imidoyl)benzyl)-N-methylpent-4-ynamide], the IC50 is reported as 1 to 5 µM. Work on `CC(C)(O)c1ncc(S(N)(=O)=NC(=O)Nc2c3c(cc4c2CCC4O)CCC3)s1` (single isomer, unassigned) [Example 338, (R, S) or (R, R)-N′-((1-hydroxy-1,2,3,5,6,7-hexahydro-s-indacen-4-yl)carbamoyl)-2-(2-hydroxypropan-2-yl)thiazole-5-sulfonimidamide] yielded an IC50 of 1 to 5 µM. Compound `CC(C)(O)c1ncc(S(N)(=O)=NC(=O)Nc2c3c(cc4c2CCC4O)CCC3)s1` (single isomer, unassigned) [Example 339, (S, S) or (S, R)-N′-((l-hydroxy-1,2,3,5,6,7-hexahydro-s-indacen-4-yl)carbamoyl)-2-(2-hydroxypropan-2-yl)thiazole-5-sulfonimidamide] has an IC50 of 1 to 5 µM. With `CC(C)(O)c1ncc(S(N)(=O)=NC(=O)Nc2c3c(cc4c2CCC4O)CCC3)s1` (single isomer, unassigned) [Example 340, (S, R) or (S, S)-N′-((1-hydroxy-1,2,3,5,6,7-hexahydro-s-indacen-4-yl)carbamoyl)-2-(2-hydroxypropan-2-yl)thiazole-5-sulfonimidamide] the IC50 was 1 to 5 µM.

Same assay, conditions: hTHP-1 assay containing 2% fetal bovine serum; average; given as bound; read-out: hTHP-1 IC50 (Average IC50 of compounds in hTHP-1 assay)
`CCc1ccc2cn(C)nc2c1NC(=O)N=S(N)(=O)c1ncc(C(C)(C)O)s1` (single isomer, unassigned) [Example 330, (R) or (S)-N′-((6-ethyl-2-methyl-2H-indazol-7-yl)carbamoyl)-5-(2-hydroxypropan-2-yl)thiazole-2-sulfonimidamide] was tested, and the IC50 was > 30 µM.
